Read-outs that look alike come from different tables or passages of the source. Square brackets hold non-standard residues; d marks the D form. Ends that are not written are not given here. Peptide text beside a SMILES is read from it. Cit = NC(=O)NCCC[C@H](N)C(=O)O
Legend:
HLA-DRB1*01:01 = molecular target: T1, HLA-DRB1*01:01 (Homo sapiens, UniProt P01903+P01911, A100R/D57E/F55L/F60I/F76Y/I96L/L162R/M171V/P40L/Q125E/R42F/V115G/Y59C); experiment: HLA class II peptide binding, inhibition of radiolabeled peptide binding to purified MHC
T1 construct: EBV transformed homozygous cell lines were used as sources of MHC molecules; endogenous in cells; host or cells: EBV transformed homozygous cell lines

HLA-DRB1*04:01 = molecular target: T2, HLA-DRB1*04:01 (Homo sapiens, UniProt P01903+P01911, A100K/A169T/F76Y/I96L/K127E/L162R/M171V/N62H/P40V/Q125Y/R42H/S133A/S149N/S66Y/V115G/V209L/W38E); experiment: as above
T2 construct: EBV transformed homozygous cell lines were used as sources of MHC molecules; endogenous in cells; host or cells: EBV transformed homozygous cell lines

[1] = citrullinated 15-mer (X), purified MHC, inhibition of radiolabeled peptide binding, dash = IC50 >40,000 nM, read-out: DRB1*01:01 binding capacity, Cit peptide (IC50 nM)
[2] = citrullinated 15-mer (X), purified MHC, inhibition of radiolabeled peptide binding, dash = IC50 >40,000 nM, read-out: DRB1*04:01 binding capacity, Cit peptide (IC50 nM)
[3] = citrullinated 15-mer peptide (X = citrulline), purified HLA-DRB1*01:01, read-out: DRB1*01:01 binding capacity, Cit peptide (IC50 nM)
[4] = citrullinated 15-mer peptide (X = citrulline), purified HLA-DRB1*04:01, read-out: DRB1*04:01 binding capacity, Cit peptide (IC50 nM)
[5] = wild-type (unmodified Arg) 15-mer peptide, purified HLA-DRB1*01:01, read-out: DRB1*01:01 binding capacity, WT peptide (IC50 nM)
[6] = wild-type (unmodified Arg) 15-mer peptide, purified HLA-DRB1*04:01, read-out: DRB1*04:01 binding capacity, WT peptide (IC50 nM)
[7] = citrullinated peptide as listed (X at Cit position), read-out: DRB1*01:01 binding capacity Cit peptide (IC50 nM)
[8] = citrullinated peptide as listed (X at Cit position), read-out: DRB1*04:01 binding capacity Cit peptide (IC50 nM)

Compound | IC50 (HLA-DRB1*01:01; [1]) [nM] | IC50 (HLA-DRB1*04:01; [2]) [nM] | IC50 (HLA-DRB1*01:01; [3]) [nM] | IC50 (HLA-DRB1*04:01; [4]) [nM] | other results
CC(C)C[C@H](NC(=O)[C@H](CCCNC(=N)N)NC(=O)[C@H](C)N)C(=O)N[C@@H](CC(=O)O)C(=O)N[C@@H](CC(C)C)C(=O)N[C@@H](CCC(=O)O)C(=O)N[C@@H](CCCNC(N)=O)C(=O)N[C@@H](CCCCN)C(=O)N[C@H](C(=O)N[C@@H](CCC(=O)O)C(=O)N[C@@H](CO)C(=O)N[C@@H](CC(C)C)C(=O)N[C@@H](CCC(N)=O)C(=O)N[C@@H](CCC(=O)O)C(=O)N[C@@H](CCC(=O)O)C(=O)O)C(C)C [ARLDLEXKVESLQEE] (H-ARLDLE[Cit]KVESLQEE-OH) | 1340 | 12000 | – | – | –
PGLRGLPGKDGETGA [Collagen 626 WT] | – | – | – | – | IC50 (HLA-DRB1*01:01; [5]): 259 nM; IC50 (HLA-DRB1*04:01; [6]): > 40000 nM
CC(C)C[C@H](NC(=O)[C@H](CC(=O)O)NC(=O)[C@H](CC(C)C)NC(=O)[C@H](CCCNC(=N)N)NC(=O)[C@H](C)NC(=O)[C@H](CC(C)C)NC(=O)[C@H](CO)NC(=O)[C@H](C)NC(=O)[C@H](CC(N)=O)NC(=O)[C@H](CC(=O)O)NC(=O)[C@@H](NC(=O)[C@H](CC(=O)O)NC(=O)[C@H](CCC(N)=O)NC(=O)[C@H](CCCNC(N)=O)NC(=O)[C@@H](N)Cc1ccccc1)C(C)C)C(=O)O [FXQDVDNASLARLDL] (H-F[Cit]QDVDNASLARLDL-OH) | 7990 | 280 | – | – | –
TIGRLQDEIQNMKEE [Vimentin 361 WT] | – | – | – | – | IC50 (HLA-DRB1*01:01; [5]): 13700 nM; IC50 (HLA-DRB1*04:01; [6]): 21800 nM
CSCC[C@H](N)C(=O)N[C@@H](C)C(=O)N[C@@H](CCCNC(N)=O)C(=O)N[C@@H](Cc1c[nH]cn1)C(=O)N[C@@H](CC(C)C)C(=O)N[C@@H](CCCNC(=N)N)C(=O)N[C@@H](CCC(=O)O)C(=O)N[C@@H](Cc1ccc(O)cc1)C(=O)N[C@@H](CCC(N)=O)C(=O)N[C@@H](CC(=O)O)C(=O)N[C@@H](CC(C)C)C(=O)N[C@@H](CC(C)C)C(=O)N[C@@H](CC(N)=O)C(=O)N[C@H](C(=O)N[C@@H](CCCCN)C(=O)O)C(C)C [MAXHLREYQDLLNVK] (H-MA[Cit]HLREYQDLLNVK-OH) | – | – | 494 | 4320 | –
CC(C)C[C@H](NC(=O)[C@H](C)NC(=O)[C@@H](NC(=O)[C@H](Cc1ccc(O)cc1)NC(=O)[C@@H](NC(=O)[C@H](Cc1ccccc1)NC(=O)[C@H](CCCNC(N)=O)NC(=O)[C@H](CO)NC(=O)[C@@H](N)CC(N)=O)[C@@H](C)O)[C@@H](C)O)C(=O)N[C@@H](CCCCN)C(=O)N[C@@H](CC(=O)O)C(=O)NCC(=O)N[C@@H](CS)C(=O)N[C@H](C(=O)N[C@@H](CCCCN)C(=O)O)[C@@H](C)O [NSXFTYTALKDGCTK] (H-NS[Cit]FTYTALKDGCTK-OH) | – | – | – | – | IC50 (HLA-DRB1*01:01; [7]): 44 nM; IC50 (HLA-DRB1*01:01; value of the wild-type (non-citrullinated) counterpart of the listed peptide, read-out: DRB1*01:01 binding capacity WT peptide (IC50 nM)): 15 nM; IC50 (HLA-DRB1*04:01; [8]): 12400 nM; IC50 (HLA-DRB1*04:01; value of the wild-type (non-citrullinated) counterpart of the listed peptide, read-out: DRB1*04:01 binding capacity WT peptide (IC50 nM)): 4170 nM
CC[C@H](C)[C@H](N)C(=O)N[C@@H](CO)C(=O)N[C@@H](CC(C)C)C(=O)N1CCC[C@H]1C(=O)N[C@@H](CC(C)C)C(=O)N1CCC[C@H]1C(=O)N[C@@H](CC(N)=O)C(=O)N[C@@H](Cc1ccccc1)C(=O)N[C@@H](CO)C(=O)N[C@@H](CO)C(=O)N[C@@H](CC(C)C)C(=O)N[C@@H](CC(N)=O)C(=O)N[C@@H](CC(C)C)C(=O)N[C@@H](CCCNC(N)=O)C(=O)N[C@@H](CCC(=O)O)C(=O)O [ISLPLPNFSSLNLXE] | – | – | 309 | 4480 | –
C[C@H](NC(=O)CNC(=O)[C@H](C)NC(=O)[C@@H]1CCCN1C(=O)CNC(=O)[C@@H](NC(=O)[C@H](CCCNC(N)=O)NC(=O)CNC(=O)[C@H](CCCNC(=N)N)NC(=O)[C@@H](N)CCC(=O)O)[C@@H](C)O)C(=O)N[C@@H](C)C(=O)NCC(=O)N[C@@H](C)C(=O)N[C@@H](CCCNC(=N)N)C(=O)NCC(=O)O [ERGXTGPAGAAGARG] (H-ERG[Cit]TGPAGAAGARG-OH) | – | – | 3910 | > 40000 | –
CC[C@H](C)[C@H](NC(=O)[C@H](C)N)C(=O)N[C@@H](CC(N)=O)C(=O)N[C@H](C(=O)N[C@@H](CCC(=O)O)C(=O)N[C@@H](Cc1ccccc1)C(=O)N[C@@H](CCCCN)C(=O)N[C@@H](CC(N)=O)C(=O)N[C@H](C(=O)N[C@@H](CCCNC(N)=O)C(=O)N[C@H](C(=O)N[C@@H](CC(N)=O)C(=O)N[C@@H](CCC(=O)O)C(=O)N[C@@H](CCCCN)C(=O)N[C@H](C(=O)O)C(C)C)[C@@H](C)O)[C@@H](C)O)[C@@H](C)O [AINTEFKNTXTNEKV] (H-AINTEFKNT[Cit]TNEKV-OH) | 2370 | 931 | – | – | –
YATRSSAVRLRSSVP [Vimentin 61 WT] | – | – | – | – | IC50 (HLA-DRB1*01:01; read-out: DRB1*01:01 binding capacity, WT peptide (IC50 nM)): 17 nM; IC50 (HLA-DRB1*04:01; read-out: DRB1*04:01 binding capacity, WT peptide (IC50 nM)): 1600 nM
CC(C)C[C@H](NC(=O)[C@H](CCCNC(N)=O)NC(=O)[C@H](C)N)C(=O)N[C@@H](CC(=O)O)C(=O)N[C@@H](CC(C)C)C(=O)N[C@@H](CCC(=O)O)C(=O)N[C@@H](CCCNC(=N)N)C(=O)N[C@@H](CCCCN)C(=O)N[C@H](C(=O)N[C@@H](CCC(=O)O)C(=O)N[C@@H](CO)C(=O)N[C@@H](CC(C)C)C(=O)N[C@@H](CCC(N)=O)C(=O)N[C@@H](CCC(=O)O)C(=O)N[C@@H](CCC(=O)O)C(=O)O)C(C)C [AXLDLERKVESLQEE] (H-A[Cit]LDLERKVESLQEE-OH) | 5290 | 9150 | – | – | –
CC(C)C[C@H](NC(=O)[C@H](CCC(N)=O)NC(=O)[C@H](CC(=O)O)NC(=O)[C@@H](NC(=O)[C@H](CCC(N)=O)NC(=O)[C@H](CCCNC(N)=O)NC(=O)[C@H](CCCNC(=N)N)NC(=O)[C@H](CC(C)C)NC(=O)[C@@H](N)CCC(=O)O)C(C)C)C(=O)N[C@H](C(=O)N[C@@H](CC(N)=O)C(=O)N[C@@H](CC(=O)O)C(=O)N[C@@H](CCCCN)C(=O)N[C@@H](C)C(=O)N[C@@H](CCCNC(=N)N)C(=O)O)[C@@H](C)O [ELRXQVDQLTNDKAR] (H-ELR[Cit]QVDQLTNDKAR-OH) | 2240 | 11000 | – | – | –
CSCC[C@H](NC(=O)[C@H](Cc1ccc(O)cc1)NC(=O)[C@H](CCC(N)=O)NC(=O)[C@H](CC(C)C)NC(=O)[C@@H]1CCCN1C(=O)[C@H](CC(=O)O)NC(=O)[C@@H]1CCCN1C(=O)CNC(=O)[C@@H](N)CCCCN)C(=O)N[C@@H](CCCNC(N)=O)C(=O)N[C@@H](C)C(=O)N[C@@H](CC(=O)O)C(=O)N[C@@H](CCC(N)=O)C(=O)N[C@@H](C)C(=O)N[C@@H](C)C(=O)O [KGPDPLQYMXADQAA] (H-KGPDPLQYM[Cit]ADQAA-OH) | – | – | – | – | IC50 (HLA-DRB1*01:01; [7]): 9.2 nM; IC50 (HLA-DRB1*04:01; [8]): 45 nM
GADGPPGRDGAAGVK [Collagen 1041 WT] | – | – | – | – | IC50 (HLA-DRB1*01:01; [5]): > 40000 nM; IC50 (HLA-DRB1*04:01; [6]): > 40000 nM
NDALRQAKQESTEYR [Vimentin 306 WT] | – | – | – | – | IC50 (HLA-DRB1*01:01; [5]): 15400 nM; IC50 (HLA-DRB1*04:01; [6]): > 40000 nM

Further lines, with some results ahead:

IC50 (HLA-DRB1*01:01; [1]) [nM] | IC50 (HLA-DRB1*04:01; [2]) [nM] | IC50 (HLA-DRB1*01:01; [3]) [nM] | IC50 (HLA-DRB1*04:01; [4]) [nM] | Compound | other results
– | – | 35 | 6400 | CC(C)C[C@H](NC(=O)CNC(=O)[C@H](C)NC(=O)[C@H](Cc1ccccc1)NC(=O)[C@H](C)NC(=O)[C@@H](N)CO)C(=O)NCC(=O)N1CCC[C@H]1C(=O)N[C@@H](CCCNC(N)=O)C(=O)N[C@@H](CCC(=O)O)C(=O)N[C@@H](CCCCN)C(=O)NCC(=O)N1CCC[C@H]1C(=O)N[C@@H](CC(=O)O)C(=O)N1CCC[C@H]1C(=O)O [SAFAGLGPXEKGPDP] (H-SAFAGLGP[Cit]EKGPDP-OH) | –
– | – | 772 | > 40000 | CC(C)C[C@H](NC(=O)[C@H](CC(N)=O)NC(=O)[C@@H](N)[C@@H](C)O)C(=O)N[C@@H](CC(=O)O)C(=O)N[C@@H](CO)C(=O)N[C@@H](CC(C)C)C(=O)N1CCC[C@H]1C(=O)N[C@@H](CC(C)C)C(=O)N[C@H](C(=O)N[C@@H](CC(=O)O)C(=O)N[C@H](C(=O)N[C@@H](Cc1c[nH]cn1)C(=O)N[C@@H](CO)C(=O)N[C@@H](CCCCN)C(=O)N[C@@H](CCCNC(N)=O)C(=O)O)[C@@H](C)O)C(C)C [TNLDSLPLVDTHSKX] (H-TNLDSLPLVDTHSK[Cit]-OH) | –
31 | 338 | – | – | CC(C)C[C@H](NC(=O)[C@H](CCCNC(=N)N)NC(=O)[C@@H](NC(=O)[C@H](C)NC(=O)[C@H](CO)NC(=O)[C@H](CO)NC(=O)[C@H](CCCNC(=N)N)NC(=O)[C@@H](NC(=O)[C@H](C)NC(=O)[C@@H](N)Cc1ccc(O)cc1)[C@@H](C)O)C(C)C)C(=O)N[C@@H](CCCNC(N)=O)C(=O)N[C@@H](CO)C(=O)N[C@@H](CO)C(=O)N[C@H](C(=O)N1CCC[C@H]1C(=O)O)C(C)C [YATRSSAVRLXSSVP] (H-YATRSSAVRL[Cit]SSVP-OH) | –
– | – | 158 | 860 | CC(C)C[C@H](NC(=O)[C@H](CO)NC(=O)[C@H](CCC(N)=O)NC(=O)[C@@H](NC(=O)[C@H](CCC(N)=O)NC(=O)[C@H](CCCNC(N)=O)NC(=O)[C@H](CCCNC(=N)N)NC(=O)[C@H](Cc1ccc(O)cc1)NC(=O)[C@H](CCC(=O)O)NC(=O)[C@@H](NC(=O)[C@@H](N)CO)[C@@H](C)O)C(C)C)C(=O)N[C@H](C(=O)N[C@@H](CS)C(=O)N[C@@H](CCC(=O)O)C(=O)N[C@H](C(=O)O)C(C)C)[C@@H](C)O [STEYRXQVQSLTCEV] (H-STEYR[Cit]QVQSLTCEV-OH) | –
